Measured values taken from patent publication US6747147B2, “Oxo-azabicyclic compounds” (Warner-Lambert Company, priority 2002, dated 2004).
Where a name gives a salt, the structure may show the parent alone. Read-outs that look alike come from different tables or passages of the source.

Target: T1, catalytic domain of human MMP-13 (Homo sapiens, UniProt P45452)
T1 construct: the catalytic domain of human MMP-13
Test: Inhibition of proteolysis of a thioester peptide substrate by MMP-13
Type: biochemical
Protocol: Evaluation of the in vitro activity of the MMP-13 inhibitor compounds according to the invention.
The inhibitory activity of the compounds of formula (I) according to the invention with respect to matrix metalloprotease-13 is evaluated by testing the ability of the compounds of the invention to inhibit the proteolysis of a peptide substrate with MMP-13.
The peptide substrate used in the test is the following peptide: Ac-Pro-Leu-Gly-thioester-Leu-Leu-Gly-OEt.
To carry out this test, a reaction medium of 100 μl volume is prepared, containing: 50 mM of HEPES buffer, 10 mM of CaCl2 and 1 mM of 5,5′-dithiobis-(2-nitrobenzoic acid) (DTNB), and 100 μM of substrate, the pH being adjusted to 7.0.
The concentrations of inhibitors present in the test samples range from 100 μM to 0.5 nM.
The IC50 values are calculated from a curve in which the percentage of the catalytic activity relative to the control is represented on the X-axis and the concentration of inhibitor is represented on the Y-axis.

[1] = substrate Ac-Pro-Leu-Gly-thioester-Leu-Leu-Gly-OEt 100 μM, pH 7.0, 2.5 nM enzyme, read-out: IC50 values on MMP-13

Row | Compound | IC50 [1] | IC50
1 | COc1ccc(CNC(=O)c2ccc3c(c2)C(=O)N(Cc2ccc(OC)cc2)CN3C)cc1 [Example 3, 3-(4-Methoxy-benzyl)-1-methyl-4-oxo-1,2,3,4-tetrahydro-quinazoline-6-carboxylic acid 4-methoxy-benzylamide] | < 1000 nM | 
2 | COc1ccc(CNC(=O)c2ccc3c(c2)C(=O)N(Cc2ccc(OC)cc2)C(C)(C)N3C)cc1 [Example 4, 3-(4-Methoxy-benzyl)-1,2,2-trimethyl-4-oxo-1,2,3,4-tetrahydro-quinazoline-6-carboxylic acid 4-methoxy-benzylamide] | < 1000 nM | 
3 | COc1ccc(CNC(=O)c2ccc3c(c2)C(=O)N(Cc2ccc(C(=O)O)cc2)CN3)cc1 [Example 5, 4-[6-(4-Methoxy-benzylcarbamoyl)-4-oxo-1,4-dihydro-2H-quinazolin-3-ylmethyl]-benzoic acid] | < 1000 nM | 
4 | COC(=O)c1ccc(CN2CN(C)c3ccc(C(=O)NCc4ccc(OC)cc4)cc3C2=O)cc1 [Example 6, Methyl 4-[6-(4-Methoxy-benzylcarbamoyl)-1-methyl-4-oxo-1,4-dihydro-2H-quinazolin-3-ylmethyl]-benzoate] | < 1000 nM | 
5 | COc1ccc(CNC(=O)c2ccc3c(c2)C(=O)N(Cc2ccc(C(=O)O)cc2)CN3C)cc1 [Example 7, 4-[6-(4-Methoxy-benzylcarbamoyl)-1-methyl-4-oxo-1,4-dihydro-2H-quinazolin-3-ylmethyl]-benzoic acid] | < 1000 nM | 
6 | O=c1c2cc(C#CCc3ccccc3)ccc2ncn1Cc1ccc(F)cc1 [Example 8, 3-(4-fluorobenzyl)-6-(3-phenyl-pro-1-ynyl)-3 H-quinazolin-4-one] |  | < 1000 nM
7 | NS(=O)(=O)c1ccc(Cn2cnc3ccc(C#CCc4ccccc4)cc3c2=O)cc1 [Example 59, 4-[4-Oxo-6-(3-phenyl-prop-1-ynyl)-4H-quinazolin-3-ylmethyl]-benzenesulfonamide] |  | < 1000 nM
8 | N#Cc1ccc(Cn2cnc3ccc(C#CCc4ccccc4)cc3c2=O)cc1 [Example 60, 4-[4-Oxo-6-(3-phenyl-prop-1-ynyl)-4H-quinazolin-3-ylmethyl]-benzonitrile] |  | < 1000 nM
9 | O=c1c2cc(C#CCc3ccccc3)ccc2ncn1Cc1cccc(Cl)c1 [Example 62, 3-(3-Chloro-benzyl)-6-(3-phenyl-prop-1-ynyl)-3H-quinazolin-4-one] |  | < 1000 nM
10 | CC(=O)Nc1ccc(Cn2cnc3ccc(C#CCc4ccccc4)cc3c2=O)cc1 [Example 67, N-{4-[4-Oxo-6-(3-phenyl-prop-1-ynyl)-4H-quinazolin-3-ylmethyl]-phenyl}-acetamide] | < 1000 nM | 
11 | O=c1c2cc(C#CCc3ccccc3)ccc2ncn1Cc1ccc(F)c(F)c1 [Example 68, 3-(3,4-Difluoro-benzyl)-6-(3-phenyl-prop-1-ynyl)-3H-quinazolin-4-one] | < 1000 nM | 
12 | O=c1c2cc(C#CCc3ccccc3)ccc2ncn1Cc1ccncc1 [Example 70, 6-(3-Phenyl-prop-1-ynyl)-3-pyridin-4-ylmethyl-3H-quinazolin-4-one] | < 1000 nM | 
13 | O=C(O)c1ccc(Cn2cnc3ccc(C#CCN4CCOCC4)cc3c2=O)cc1 [Example 106, 4-[6-(3-Morpholin-4-yl-prop-1-ynyl)-4-oxo-4H-quinazolin-3-ylmethyl]-benzoic acid trifluoroacetic acid salt] |  | ≥ 65000 nM
14 | O=C(O)c1ccc(Cn2cnc3ccc(C#CCN4CCCCC4)cc3c2=O)cc1 [Example 107, 4-[4-Oxo-6-(3-piperidin-1-yl-prop-1-ynyl)-4H-quinazolin-3-ylmethyl]-benzoic acid trifluoroacetic acid salt] |  | ≥ 65000 nM
15 | CN1CCN(CC#Cc2ccc3ncn(Cc4ccc(C(=O)O)cc4)c(=O)c3c2)CC1 [Example 108, 4-{6-[3-(4-Methyl-piperazin-1-yl)-prop-1-ynyl]-4-oxo-4H-quinazolin-3-ylmethyl}-benzoic acid trifluoroacetic acid salt] | ≥ 65000 nM | 
16 | O=C(O)c1ccc(Cn2cnc3ccc(C#CCN4Cc5ccccc5C4)cc3c2=O)cc1 [Example 109, 4-{6-[3-(1,3-Dihydro-isoindol-2-yl)-prop-1-ynyl]-4-oxo-4H-quinazolin-3-ylmethyl}-benzoic acid trifluoroacetic acid] | < 1000 nM | 

The remaining lines, values ahead:

Row | IC50 [1] | IC50 | Compound
17 | < 1000 nM |  | COc1ccc(CNC(=O)c2ccc3ncn(Cc4ccc(OC)cc4)c(=O)c3c2)cc1 [Example 1, 3-(4-Methoxy-benzyl)-4-oxo-3,4-dihydro-quinazoline-6-carboxylic acid 4-methoxy-benzylamide]
18 | < 1000 nM |  | COc1ccc(CNC(=O)c2ccc3nc(C)n(Cc4ccc(OC)cc4)c(=O)c3c2)cc1 [Example 2, 3-(4-Methoxy-benzyl)-2-methyl-4-oxo-3,4-dihydro-quinazoline-6-carboxylic acid 4-methoxy-benzylamide, hydrochloride]
19 |  | < 1000 nM | COC(=O)c1ccc(Cn2cnc3ccc(C#CCc4ccccc4)cc3c2=O)cc1 [Example 9, Methyl 4-[4-Oxo-6-(3-phenyl-prop-1-ynyl)-4H-quinazolin-3-ylmethyl]-benzoate]
20 | < 1000 nM |  | COc1cccc(CNC(=O)c2ccc3ncn(Cc4ccc(F)cc4)c(=O)c3c2)c1 [Example 14, 3-(4-Fluoro-benzyl)-4-oxo-3,4-dihydro-quinazoline-6-carboxylic acid 3-methoxy-benzylamide]
21 | < 1000 nM |  | COc1ccc(CNC(=O)c2ccc3ncn(Cc4ccc(S(C)(=O)=O)cc4)c(=O)c3c2)cc1 [Example 15]
22 | < 1000 nM |  | COc1ccc(CNC(=O)c2ccc3ncn(Cc4ccc(S(=O)(=O)N5CCCC5)cc4)c(=O)c3c2)cc1 [Example 16, 4-Oxo-3-[4-(pyrrolidine-1-sulfonyl)-benzyl]-3,4-dihydro-quinazoline-6-carboxylic acid 4-methoxy-benzylamide]
23 | < 1000 nM |  | COc1cccc(CNC(=O)c2ccc3ncn(Cc4ccc(C(=O)O)cc4)c(=O)c3c2)c1 [Example 17, 4-[6-(3-Methoxy-benzylcarbamoyl)-4-oxo-4H-quinazolin-3-ylmethyl]-benzoic acid]
24 | < 1000 nM |  | COc1cc(CNC(=O)c2ccc3ncn(Cc4ccc(F)cc4)c(=O)c3c2)ccn1 [Example 21, 3-(4-Fluoro-benzyl)-4-oxo-3,4-dihydro-quinazoline-6-carboxylic acid (2-methoxy-pyridin-4-ylmethyl)-amide]
25 | < 1000 nM |  | COc1cccc(CNC(=O)c2cc3c(=O)n(Cc4cccc(F)c4)cnc3cn2)c1 [Example 23, 3-(3-Fluoro-benzyl)-4-oxo-3,4-dihydro-pyrido[3,4-d]pyrimidine-6-carboxylic acid 3-methoxy-benzylamide]
26 | < 1000 nM |  | COc1ccc(CNC(=O)c2cc3c(=O)n(Cc4cccc(F)c4)cnc3cn2)cc1 [Example 24, 3-(3-Fluoro-benzyl)-4-oxo-3,4-dihydro-pyrido[3,4-d]pyrimidine-6-carboxylic acid 4-methoxy-benzylamide]
27 | < 1000 nM |  | O=c1c2cc(C#CCOc3ccncc3)ccc2ncn1Cc1ccc(F)c(F)c1 [Example 65, 3-(3,4-Difluoro-benzyl)-6-[3-(pyridin-4-yloxy)-prop-1-ynyl]-3H-quinazolin-4-one]
28 | < 1000 nM |  | COc1ccc(CC#Cc2ccc3ncn(Cc4ccc(F)c(F)c4)c(=O)c3c2)cc1 [Example 66, 3-(3,4-Difluoro-benzyl)-6-[3-(4-methoxy-phenyl)-prop-1-ynyl]-3H-quinazolin-4-one]
29 | < 1000 nM |  | COc1ccc(CC#Cc2ccc3ncn(Cc4ccc(C(C)=O)cc4)c(=O)c3c2)cc1 [Example 69, 3-(4-Acetyl-benzyl)-6-[3-(4-methoxy-phenyl)-prop-1-ynyl]-3H-quinazolin-4-one]
30 | < 1000 nM |  | COc1ccc(CC#Cc2ccc3ncn(Cc4ccncc4)c(=O)c3c2)cc1 [Example 71, 6-[3-(4-Methoxy-phenyl)-prop-1-ynyl]-3-pyridin-4-ylmethyl-3H-quinazolin-4-one]
31 | < 1000 nM |  | COc1cc(CNC(=O)c2ccc3ncn(Cc4ccc(F)c(F)c4)c(=O)c3c2)ccn1 [Example 104, 3-(3,4-Difluoro-benzyl)-4-oxo-3,4-dihydro-quinazoline-6-carboxylic acid (2-methoxy-pyridin-4-ylmethyl)-amide]
32 | < 1000 nM |  | COc1ccc(CNC(=O)c2ccc3ncn(Cc4ccc(F)c(F)c4)c(=O)c3c2)cc1 [Example 105, 3-(3,4-Difluoro-benzyl)-4-oxo-3,4-dihydro-quinazoline-6-carboxylic acid 4-methoxy-benzylamide]
